The values that follow come from patent US8952003B2, “Sterol derivative” (Kyowa Hakko Kirin Co., Ltd, priority 2009, dated 2015).

This assay deals with Rat adult neural stem cell line ANSC-7 cells. The assay is described as follows: Proliferation promoting activity on neural stem cells (Test Example 1). The following applies: at 1.0 nmol/L, relative value, negative control (DMSO) = 100%, wells without cells = 0%, absorbance at 490 nm. The assay is classed as cell-based. Here is the method: Rat adult neural stem cell line ANSC-7 cells prepared by the method described in the following Reference Test Example 1 were suspended in assay medium at a density of 1.6×10^5 cells/mL; inoculated at 0.1 mL in a 96 well plate (manufactured by Costar) of which surface was coated with polyornithine and laminin; and cultured overnight at 37° C. under an atmosphere of 5% CO2. Thereafter, 50 μL of the culture supernatant was removed, and 50 μL of a test compound which was serially diluted with the assay medium to 2 times of the final concentration or DMSO (negative control) was added to each well. For the serial dilution of a test compound, non-specific adsorption was minimized by using ProteoSave 96 U plates (manufactured by SUMILON), siliconized 1.5 mL tubes (manufactured by Assist) and Pitarack siliconized tips (manufactured by Nacalai). After the culturing for 48 hours, 50 μL of the culture supernatant was replaced by 50 μL of the assay medium containing 0.1% bovine fetal serum. Furthermore, after the culturing for 48 hours, Living Cell Count Reagent SF (manufactured by Nacalai Tesque) was added at the volume of 10 μL per well to the medium. After the culturing for 3 hours at 37° C. in the incubator which was set at 5% CO2, the resulting solution was stirred for one minute and then the absorbance at 490 nm (control wavelength 655 nm) was measured by using Microplate Spectrophotometer Emax (manufactured by Molecular Devices). By regarding the measured value of well to which the cells were not inoculated as 0%, and the measured value of negative control as 100%, relative values in the test compound addition group were calculated.
After putting a 7-week-old Sprague Dawley Rat to sleep by ether anesthesia and subsequent decapitation, the skull was cut open from the parietal region to extract the brain. Under a microscope, tissues including circumventricular region were isolated from the extracted brain by using ophthalmic scissors and tweezers. The tissues including circumventricular region were cut into fragments of about 1 mm^3 using ophthalmic scissors and scalpels and then subjected to 30 minutes of digestion reaction at 37° C. in 5 mL of Hanks' buffer (HBSS buffer, manufactured by Invitrogen) containing 2.5 U/mL of papain, 250 U/mL of DNase (all manufactured by Worthington, Freehold, N.J.) and 1 U/mL of a neutral protease (Dispase, manufactured by Boehringer-Mannheim Corp.). The mixture of cells and tissues obtained by the reaction was washed three times with DMEM (manufactured by Invitrogen) containing 10% fetal bovine serum (manufactured by Hyclone) and then dissolved in the DMEM containing 10% fetal bovine serum, followed by removing the undigested materials using a nylon mesh of […].
The resulting crude cells extract was cultured overnight on a culture dish of 10 cm, in an incubator of 37° C. using DMEM/F12 medium (manufactured by Invitrogen) containing 10% fetal bovine serum. On the next day, the medium was replaced with DMEM/F12 containing 1% of N-2 additives (manufactured by Invitrogen) and 20 ng/mL of FGF 2 (manufactured by Pepro Tech) and the culturing was started. Once in 3 days, half of the medium was replaced with new DMEM/F12 containing 1% of N-2 additives and 20 ng/mL of FGF 2 and the culturing was continued.
When a small colony consisting of small cells was formed, it was treated with 1% trypsin for 30 seconds to 1 minute, and the cells detached were harvested. The harvested cells were inoculated on a multiple well culture dish (manufactured by Fisher Scientific) which had been coated at room temperature overnight using 10 μg/mL of polyornithine (manufactured by Sigma) and at 37° C. overnight using 5 μg/mL of mouse EHS tumor-derived laminin (Becton Dickinson), and the culturing was continued.
By continuing the above-mentioned culturing, small cells having small protrusion and thickness were concentrated. The cells were used as adult neural stem cells in the above-mentioned test (Test Example 1).

Turning to `CC(C)CCC[C@@H](C)[C@H]1CCC2=C3OC(=O)[C@H]4C[C@@H](O)CC[C@]4(C)[C@H]3CC[C@@]21C` [Compound 99, (1R,5aS,7S,9aR,9bR,11aR)-7-Hydroxy-9a,11a-dimethyl-1-[(R)-6-methylheptan-2-yl]-2,3,3,5a,6,7,8,9,9a,9b,10,11,11a-dodecahydrobenzo[c]cyclopenta[h]chromen-5(1H)-one], the activity at 0.001 µM is not below 125%.
